Laboratory results published in article PMC10609924, “Cytotoxic Activity of Wild Plant and Callus Extracts of Ageratina pichinchensis and 2,3-Dihydrobenzofuran Isolated from a Callus Culture” (Pharmaceuticals, 2023).
Converted amounts (≈) assume the structure as drawn.

Key:
[1] = Cytotoxic assay (CellTiter 96 AQueous One Solution), HaCat selectivity control; settings: human
Procedure: (§1) We evaluated the cytotoxic activity of the ethyl acetate and methanol extracts obtained from different parts of the wild plant A. pichinchensis, including its leaves, stems, and callus cultures. The extracts were evaluated using concentrations of 200, 100, 50, 25, and 12.5 µg/mL against various cell lines (Table 1), including human prostate carcinoma (PC-3), cervical cancer (HeLa), hepatocellular carcinoma (Huh-7), human hepatoma (HepG2) and breast tumor cells (MCF-7). These cell lines represent cell types that, unfortunately, have high incidence and mortality rates globally.
(§2) PC-3 (prostate), HeLa (cervical), MCF-7 (breast), and Huh-7 and HepG2 (hepatocellular) human cancer cell lines were purchased from ATCC (Manassas, VA, USA) (Figure 5). We also included an immortalized human epidermal keratinocyte line (HaCat) as a control of non-cancerous cells. […]
(§3) Cells (4 × 10^3 cells/well) were seeded in 96-well plates. […] Cell viability was determined by absorbance at 450 nm using an automated ELISA reader (Promega, Madison, WI, USA). […] Data were analyzed using the Prism 8.0 statistical program (Graphpad Software Inc., La Jolla, CA, USA) and the half-maximal inhibitory concentrations (IC50) were determined by regression analysis.

[2] = tested on: HeLa cells (cervical cancer); test: Cytotoxic assay (CellTiter 96 AQueous One Solution), HeLa
Procedure: as §1
PC-3 (prostate), HeLa (cervical), MCF-7 (breast), and Huh-7 and HepG2 (hepatocellular) human cancer cell lines were purchased from ATCC (Manassas, VA, USA) (Figure 5). We also included an immortalized human epidermal keratinocyte line (HaCat) as a control of non-cancerous cells. PC-3 was grown in RPMI-1640 medium (Sigma Aldrich, St. Louis, MO, USA), while Huh-7, HepG2, HeLa, and HaCat were grown in DMEM medium (Invitrogen, Thermo Fisher Scientific, Waltham, MA, USA) supplemented with 10% SFB and 2 mM glutamine. All cultures were incubated at 37 °C in 5% CO2.
Cells (4 × 10^3 cells/well) were seeded in 96-well plates. The cells were treated with the investigated samples (at 200, 100, 50, 25, and 12.5 µg/mL) and incubated at 37 °C in 5% CO2 for 48 h. Paclitaxel was used as a positive control. For determining the number of viable cells in proliferation we used a CellTiter 96® AQueous One Solution Cell Proliferation Assay kit (Promega, Madison, WI, USA), following the manufacturer’s instructions. Cell viability was determined by absorbance at 450 nm using an automated ELISA reader (Promega, Madison, WI, USA). Stock solutions of all compounds were prepared in DMSO at a maximum concentration of 0.5%. The experiments were conducted in triplicate in three independent experiments. Data were analyzed using the Prism 8.0 statistical program (Graphpad Software Inc., La Jolla, CA, USA) and the half-maximal inhibitory concentrations (IC50) were determined by regression analysis.

[3] = tested on: MCF-7 cells (breast tumor cells); test: Cytotoxic assay (CellTiter 96 AQueous One Solution), MCF-7
Procedure: as §1, §2, §3

[4] = tested on: HepG2 cells (human hepatoma); test: Cytotoxic assay (CellTiter 96 AQueous One Solution), HepG2
Procedure: as §1, §2, §3

[5] = tested on: Huh-7 cells (hepatocellular carcinoma); test: Cytotoxic assay (CellTiter 96 AQueous One Solution), Huh-7
Procedure: as §1, §2, §3

[6] = tested on: PC-3 cells (human prostate carcinoma); test: Cytotoxic assay (CellTiter 96 AQueous One Solution), PC-3
Procedure: as §1, §2, §3

[7] = tested on: PC-3, HeLa, Huh-7, HepG2, MCF-7 and HaCat cell lines; test: Cytotoxic assay, statements over the whole cell line panel; settings: PTX-treated cell lines
Procedure: as §1, §2, §3

[8] = tested on: HaCat cells (immortalized human epidermal keratinocytes); test: Cytotoxic assay (CellTiter 96 AQueous One Solution), HaCat selectivity control
Procedure: as §1, §2, §3

Row | Molecule | IC50 at 48 h [1] [µg/mL] | IC50 ([2]; Homo sapiens, HeLa, 48 h, read-out: Cytotoxic activity (IC50), HeLa) [µg/mL] | IC50 ([3]; Homo sapiens, MCF7, 48 h, read-out: Cytotoxic activity (IC50), MCF-7) [µg/mL] | IC50 ([4]; Homo sapiens, HepG2, 48 h, read-out: Cytotoxic activity (IC50), HepG2) [µg/mL] | IC50 ([5]; Homo sapiens, Huh-7, 48 h, read-out: Cytotoxic activity (IC50), Huh-7) [µg/mL] | IC50 ([6]; Homo sapiens, PC-3, 48 h, read-out: Cytotoxic activity (IC50), PC-3) [µg/mL] | IC50 values range in words [7] | Cytotoxic activity (IC50), HaCat [8] [µg/mL] | Cytotoxic activity (IC50), HeLa [2] [µg/mL] | Cytotoxic effect in words, HeLa [2] | Cytotoxic activity (IC50), MCF-7 [3] [µg/mL] | Cytotoxic activity (IC50), HepG2 [4] [µg/mL] | Cytotoxic activity (IC50), Huh-7 [5] [µg/mL] | Cytotoxic activity (IC50), PC-3 [6] [µg/mL]
1 | CC(=O)O[C@H]1C(=O)[C@@]2(C)[C@H]([C@H](OC(=O)c3ccccc3)[C@]3(O)C[C@H](OC(=O)[C@H](O)[C@@H](NC(=O)c4ccccc4)c4ccccc4)C(C)=C1C3(C)C)[C@]1(OC(C)=O)CO[C@@H]1C[C@@H]2O [Paclitaxel, paclitaxel] | 0.097 ± 0.0128 (≈ 0.114 µM) | 0.017 ± 0.00103 (≈ 0.0199 µM) | 0.018 ± 0.0035 (≈ 0.0211 µM) | 0.00857 (≈ 0.01 µM) | 0.021 ± 0.00273 (≈ 0.0246 µM) | 0.013 ± 0.00196 (≈ 0.0152 µM) | nanomolar (nM) range |  |  |  |  |  |  | 
2 | (2S,3R)-5-acetyl-7,3-dihydroxy-2-(1-isopropenyl)-2,3-dihydrobenzofuran [compound 7] |  |  |  |  |  |  |  | 123.50 ± 15.17 | 23.86 ± 2.5 | remarkable effect on the inhibition of HeLa cells | 107.20 ± 1.52 | 74.62 ± 2.02 | 79.98 ± 3.78 | 80.36 ± 4.63
